Measurements reported in patent US20110039721A1, “METHOD FOR PREDICTION ABOUT CARCINOGENICITY OF SUBSTANCE IN RODENT” (Chemicals Evaluation and Research Institute, priority 2007, published 2011).

Columns and labels:
[1] = tested on: mRNA expressed from the genes (A) to (D) in rat liver; test: Behavior of genes (mRNA expression level, oligo-DNA microarray) in rat liver after 28-day oral administration; type: in vivo; settings: for Behavior of gene caused by administration of chemical substance, Gene No. 4846 / Behavior of gene caused by administration of chemical substance, Gene No. 2026 / Behavior of gene caused by administration of chemical substance, Gene No. 4218 / Behavior of gene caused by administration of chemical substance, Gene No. 6182 / Behavior of gene caused by administration of chemical substance, Gene No. 5600: gene group (A); for Behavior of gene caused by administration of chemical substance, Gene No. 4846: Unigene No. Rn.144554; for Behavior of gene caused by administration of chemical substance, Gene No. 2026 / Behavior of gene caused by administration of chemical substance, Gene No. 4218: Unigene No. Rn.167075; for Behavior of gene caused by administration of chemical substance, Gene No. 6182: Unigene No. Rn.5834; for Behavior of gene caused by administration of chemical substance, Gene No. 5600: Unigene No. Rn.9836; for Behavior of gene caused by administration of chemical substance, Gene No. 1494 / Behavior of gene caused by administration of chemical substance, Gene No. 2045 / Behavior of gene caused by administration of chemical substance, Gene No. 2203: gene group (B); for Behavior of gene caused by administration of chemical substance, Gene No. 1494: Unigene No. Rn.1430; for Behavior of gene caused by administration of chemical substance, Gene No. 2045: Unigene No. Rn.19329; for Behavior of gene caused by administration of chemical substance, Gene No. 2203: Unigene No. Rn.21240; for Behavior of gene caused by administration of chemical substance, Gene No. 533 / Behavior of gene caused by administration of chemical substance, Gene No. 725 / Behavior of gene caused by administration of chemical substance, Gene No. 1163 / Behavior of gene caused by administration of chemical substance, Gene No. 4973 / Behavior of gene caused by administration of chemical substance, Gene No. 4095 / Behavior of gene caused by administration of chemical substance, Gene No. 1334 / Behavior of gene caused by administration of chemical substance, Gene No. 6620 / Behavior of gene caused by administration of chemical substance, Gene No. 6303 / Behavior of gene caused by administration of chemical substance, Gene No. 5878 / Behavior of gene caused by administration of chemical substance, Gene No. 1131 / Behavior of gene caused by administration of chemical substance, Gene No. 1562 / Behavior of gene caused by administration of chemical substance, Gene No. 1741 / Behavior of gene caused by administration of chemical substance, Gene No. 893 / Behavior of gene caused by administration of chemical substance, Gene No. 6026 / Behavior of gene caused by administration of chemical substance, Gene No. 154 / Behavior of gene caused by administration of chemical substance, Gene No. 1993 / Behavior of gene caused by administration of chemical substance, Gene No. 813 / Behavior of gene caused by administration of chemical substance, Gene No. 2494 / Behavior of gene caused by administration of chemical substance, Gene No. 2546 / Behavior of gene caused by administration of chemical substance, Gene No. 3776 / Behavior of gene caused by administration of chemical substance, Gene No. 3929 / Behavior of gene caused by administration of chemical substance, Gene No. 1119 / Behavior of gene caused by administration of chemical substance, Gene No. 6742 / Behavior of gene caused by administration of chemical substance, Gene No. 5634: gene group (C); for Behavior of gene caused by administration of chemical substance, Gene No. 533: Unigene No. Rn.106184; for Behavior of gene caused by administration of chemical substance, Gene No. 725: Unigene No. Rn.108075; for Behavior of gene caused by administration of chemical substance, Gene No. 1163: Unigene No. Rn.11766; for Behavior of gene caused by administration of chemical substance, Gene No. 4973: Unigene No. Rn.118529; for Behavior of gene caused by administration of chemical substance, Gene No. 4095: Unigene No. Rn.119024; for Behavior of gene caused by administration of chemical substance, Gene No. 1334 / Behavior of gene caused by administration of chemical substance, Gene No. 6620: Unigene No. Rn.120914; for Behavior of gene caused by administration of chemical substance, Gene No. 6303: Unigene No. Rn.123063; for Behavior of gene caused by administration of chemical substance, Gene No. 5878: Unigene No. Rn.143213; for Behavior of gene caused by administration of chemical substance, Gene No. 1131: Unigene No. Rn.144946; for Behavior of gene caused by administration of chemical substance, Gene No. 1562: Unigene No. Rn.14744; for Behavior of gene caused by administration of chemical substance, Gene No. 1741: Unigene No. Rn.1647; for Behavior of gene caused by administration of chemical substance, Gene No. 893: Unigene No. Rn.164817; for Behavior of gene caused by administration of chemical substance, Gene No. 6026: Unigene No. Rn.167685; for Behavior of gene caused by administration of chemical substance, Gene No. 154: Unigene No. Rn.185941; for Behavior of gene caused by administration of chemical substance, Gene No. 1993: Unigene No. Rn.18728; for Behavior of gene caused by administration of chemical substance, Gene No. 813: Unigene No. Rn.201760; for Behavior of gene caused by administration of chemical substance, Gene No. 2494: Unigene No. Rn.23969; for Behavior of gene caused by administration of chemical substance, Gene No. 2546: Unigene No. Rn.24561; for Behavior of gene caused by administration of chemical substance, Gene No. 3776: Unigene No. Rn.43232; for Behavior of gene caused by administration of chemical substance, Gene No. 3929: Unigene No. Rn.4620; for Behavior of gene caused by administration of chemical substance, Gene No. 1119: Unigene No. Rn.9757; for Behavior of gene caused by administration of chemical substance, Gene No. 6742: Unigene No. Rn.9779; for Behavior of gene caused by administration of chemical substance, Gene No. 5634: Unigene No. Rn.9862; for Behavior of gene caused by administration of chemical substance, Gene No. 5726: gene group (D), Unigene No. Rn.9939
How it was run: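 Groups of four male F344 SPF rats aged 5 weeks are gavaged once a day for 28 days with test chemical in solvent or with solvent alone at equal volume. Total RNA comes from liver taken on day 28. Fold change of 1.5 or 1/1.5 versus control, directionally consistent, defines significance.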

[2] = tested on: rodent; settings: classification of the substance (C+/C−); cited from earlier work
[3] = classification of the substance (M+/M−); cited from earlier work
[4] = tested on: liver; settings: classification of the substance (Cr+/Cr−); cited from earlier work

Structure (SMILES)	Behavior of gene caused by administration of chemical substance, Gene No. 4846 [1]	Behavior of gene caused by administration of chemical substance, Gene No. 2026 [1]	Behavior of gene caused by administration of chemical substance, Gene No. 4218 [1]	Behavior of gene caused by administration of chemical substance, Gene No. 6182 [1]	Behavior of gene caused by administration of chemical substance, Gene No. 5600 [1]	Behavior of gene caused by administration of chemical substance, Gene No. 1494 [1]	Behavior of gene caused by administration of chemical substance, Gene No. 2045 [1]	Behavior of gene caused by administration of chemical substance, Gene No. 2203 [1]	Behavior of gene caused by administration of chemical substance, Gene No. 533 [1]	Behavior of gene caused by administration of chemical substance, Gene No. 725 [1]	Behavior of gene caused by administration of chemical substance, Gene No. 1163 [1]	Behavior of gene caused by administration of chemical substance, Gene No. 4973 [1]	Behavior of gene caused by administration of chemical substance, Gene No. 4095 [1]	Behavior of gene caused by administration of chemical substance, Gene No. 1334 [1]	Behavior of gene caused by administration of chemical substance, Gene No. 6620 [1]	Behavior of gene caused by administration of chemical substance, Gene No. 6303 [1]	Behavior of gene caused by administration of chemical substance, Gene No. 5878 [1]	Behavior of gene caused by administration of chemical substance, Gene No. 1131 [1]	Behavior of gene caused by administration of chemical substance, Gene No. 1562 [1]	Behavior of gene caused by administration of chemical substance, Gene No. 1741 [1]	further results
OC[C@@H](O)[C@@H](O)[C@H](O)[C@H](O)CO [TS009, D-Mannitol]	−	−	−	−	−	−	−	−	−	−	−	−	−	−	−	−	−	−	−	−	Behavior of gene caused by administration of chemical substance, Gene No. 893 [1]: −; Behavior of gene caused by administration of chemical substance, Gene No. 6026 [1]: −; Behavior of gene caused by administration of chemical substance, Gene No. 154 [1]: −; Behavior of gene caused by administration of chemical substance, Gene No. 1993 [1]: −; Behavior of gene caused by administration of chemical substance, Gene No. 813 [1]: −; Behavior of gene caused by administration of chemical substance, Gene No. 2494 [1]: −; Behavior of gene caused by administration of chemical substance, Gene No. 2546 [1]: −; Behavior of gene caused by administration of chemical substance, Gene No. 3776 [1]: −; Behavior of gene caused by administration of chemical substance, Gene No. 3929 [1]: −; Behavior of gene caused by administration of chemical substance, Gene No. 1119 [1]: −; Behavior of gene caused by administration of chemical substance, Gene No. 6742 [1]: −; Behavior of gene caused by administration of chemical substance, Gene No. 5634 [1]: −; Behavior of gene caused by administration of chemical substance, Gene No. 5726 [1]: −; Carcinogenicity [2]: C−; Mutagenicity by Ames test [3]: M−; Liver carcinogenicity [4]: Cr−
Clc1ccc(C(c2ccc(Cl)cc2)C(Cl)(Cl)Cl)cc1 [TS016, Dichloro-diphenyl-trichloroethane]	−	−	−	+	−	+	+	+	+	−	−	−	+	−	−	−	−	−	−	+	Behavior of gene caused by administration of chemical substance, Gene No. 893 [1]: −; Behavior of gene caused by administration of chemical substance, Gene No. 6026 [1]: −; Behavior of gene caused by administration of chemical substance, Gene No. 154 [1]: −; Behavior of gene caused by administration of chemical substance, Gene No. 1993 [1]: −; Behavior of gene caused by administration of chemical substance, Gene No. 813 [1]: −; Behavior of gene caused by administration of chemical substance, Gene No. 2494 [1]: +; Behavior of gene caused by administration of chemical substance, Gene No. 2546 [1]: −; Behavior of gene caused by administration of chemical substance, Gene No. 3776 [1]: −; Behavior of gene caused by administration of chemical substance, Gene No. 3929 [1]: −; Behavior of gene caused by administration of chemical substance, Gene No. 1119 [1]: −; Behavior of gene caused by administration of chemical substance, Gene No. 6742 [1]: +; Behavior of gene caused by administration of chemical substance, Gene No. 5634 [1]: +; Behavior of gene caused by administration of chemical substance, Gene No. 5726 [1]: −; Carcinogenicity [2]: C+; Mutagenicity by Ames test [3]: M−; Liver carcinogenicity [4]: Cr+
